Test results from PubChem BioAssay (NCI).
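Following 48 hours of exposure in 96-well plates, responses at five concentrations were used to interpolate endpoints linearly. GI50 is the concentration that inhibits growth by half. TGI marks complete inhibition of growth.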

What was measured:
Test in all cases: NCI-60 cell line screen, 48 h
[1] = test system: UACC-62 melanoma
[2] = test system: SK-MEL-5 melanoma
[3] = test system: SN12C renal
[4] = test system: CAKI-1 renal
[5] = test system: CCRF-CEM leukemia
[6] = test system: NCI-H23 lung
[7] = test system: HL-60(TB) leukemia
[8] = test system: A549 NSCLC
[9] = test system: UO-31 renal
[10] = test system: SF-295 CNS
[11] = test system: HCT-15 colon
[12] = test system: M14 melanoma
[13] = test system: RPMI-8226 leukemia
[14] = test system: HCT-116 colon
[15] = test system: NCI/ADR-RES ovarian
[16] = test system: HT29 colon
[17] = test system: HS 578T breast
[18] = test system: RXF 393 renal
[19] = test system: EKVX NSCLC
[20] = test system: U251 CNS
[21] = test system: OVCAR-3 ovarian
[22] = test system: OVCAR-4 ovarian
[23] = test system: SK-OV-3 ovarian
[24] = test system: OVCAR-8 ovarian
[25] = test system: TK-10 renal
[26] = test system: PC-3 prostate
[27] = test system: SR leukemia
[28] = test system: NCI-H226 lung
[29] = test system: ACHN renal
[30] = test system: MDA-MB-435
[31] = test system: OVCAR-5 ovarian
[32] = test system: NCI-H460 lung
[33] = test system: MOLT-4 leukemia
[34] = test system: HOP-62 NSCLC
[35] = test system: LOX IMVI melanoma
[36] = test system: SW-620 colon
[37] = test system: SF-268 CNS
[38] = test system: K-562 leukemia
[39] = test system: IGROV1 ovarian
[40] = test system: SF-539 CNS
[41] = test system: DU-145 prostate
[42] = test system: UACC-257 melanoma
[43] = test system: A498 renal
[44] = test system: SK-MEL-28 melanoma
[45] = test system: HCC-2998 colon
[46] = test system: SNB-75 CNS
[47] = test system: NCI-H522 lung
[48] = test system: HOP-92 NSCLC
[49] = test system: MDA-MB-231 breast
[50] = test system: KM12 colon
[51] = test system: SNB-19 CNS
[52] = test system: COLO 205 colon
[53] = test system: MALME-3M melanoma
[54] = test system: 786-0 renal
[55] = test system: BT-549 breast
[56] = test system: T-47D breast
[57] = test system: MCF7 breast
[58] = test system: SK-MEL-2 melanoma

NS(=O)(=O)c1ccc(N=Nc2c(O)[nH]c3ccc(C(=O)NCc4ccncc4)cc23)cc1
GI50 [1]: > 25 µM | TGI [1]: > 25 µM | GI50 [2]: > 25 µM | TGI [2]: > 25 µM | GI50 [3]: > 25 µM | TGI [3]: > 25 µM | GI50 [4]: > 25 µM | TGI [4]: > 25 µM | GI50 [5]: > 25 µM | TGI [5]: > 25 µM | GI50 [6]: > 25 µM | TGI [6]: > 25 µM | GI50 [7]: > 25 µM | TGI [7]: > 25 µM | GI50 [8]: > 25 µM | TGI [8]: > 25 µM | GI50 [9]: > 25 µM | TGI [9]: > 25 µM | GI50 [10]: > 25 µM | TGI [10]: > 25 µM | GI50 [11]: > 25 µM | TGI [11]: > 25 µM | GI50 [12]: > 25 µM | TGI [12]: > 25 µM | GI50 [13]: > 25 µM | TGI [13]: > 25 µM | GI50 [14]: > 25 µM | TGI [14]: > 25 µM | GI50 [15]: > 25 µM | TGI [15]: > 25 µM | GI50 [16]: 24.6 µM | TGI [16]: > 25 µM | GI50 [17]: > 25 µM | TGI [17]: > 25 µM | GI50 [18]: > 25 µM | TGI [18]: > 25 µM | GI50 [19]: > 25 µM | TGI [19]: > 25 µM | GI50 [20]: > 25 µM | TGI [20]: > 25 µM | GI50 [21]: > 25 µM | TGI [21]: > 25 µM | GI50 [22]: > 25 µM | TGI [22]: > 25 µM | GI50 [23]: > 25 µM | TGI [23]: > 25 µM | GI50 [24]: > 25 µM | TGI [24]: > 25 µM | GI50 [25]: > 25 µM | TGI [25]: > 25 µM | GI50 [26]: > 25 µM | TGI [26]: > 25 µM | GI50 [27]: > 25 µM | TGI [27]: > 25 µM | GI50 [28]: > 25 µM | TGI [28]: > 25 µM | GI50 [29]: > 25 µM | TGI [29]: > 25 µM | GI50 [30]: > 25 µM | TGI [30]: > 25 µM | GI50 [31]: > 25 µM | TGI [31]: > 25 µM | GI50 [32]: > 25 µM | TGI [32]: > 25 µM | GI50 [33]: > 25 µM | TGI [33]: > 25 µM | GI50 [34]: > 25 µM | TGI [34]: > 25 µM | GI50 [35]: > 25 µM | TGI [35]: > 25 µM | GI50 [36]: > 25 µM | TGI [36]: > 25 µM | GI50 [37]: > 25 µM | TGI [37]: > 25 µM | GI50 [38]: > 25 µM | TGI [38]: > 25 µM | GI50 [39]: > 25 µM | TGI [39]: > 25 µM | GI50 [40]: > 25 µM | TGI [40]: > 25 µM | GI50 [41]: > 25 µM | TGI [41]: > 25 µM | GI50 [42]: > 25 µM | TGI [42]: > 25 µM | GI50 [43]: > 25 µM | TGI [43]: > 25 µM | GI50 [44]: > 25 µM | TGI [44]: > 25 µM | GI50 [45]: > 25 µM | TGI [45]: > 25 µM | GI50 [46]: > 25 µM | TGI [46]: > 25 µM | GI50 [47]: > 25 µM | TGI [47]: > 25 µM | GI50 [48]: > 25 µM | TGI [48]: > 25 µM | GI50 [49]: > 25 µM | TGI [49]: > 25 µM | GI50 [50]: > 25 µM | TGI [50]: > 25 µM | GI50 [51]: > 25 µM | TGI [51]: > 25 µM | GI50 [52]: > 25 µM | TGI [52]: > 25 µM | GI50 [53]: > 25 µM | TGI [53]: > 25 µM | GI50 [54]: > 25 µM | TGI [54]: > 25 µM | GI50 [55]: > 9.38 µM | TGI [55]: > 25 µM | GI50 [56]: > 25 µM | TGI [56]: > 25 µM | GI50 [57]: > 25 µM | TGI [57]: > 25 µM | GI50 [58]: > 25 µM | TGI [58]: > 25 µM
